Patent publication US12662451B2, “Chemical compounds and uses thereof” (GLAXOSMITHKLINE INTELLECTUAL PROPERTY (NO.4) LIMITED, priority 2023, dated 2026)
Where a name gives a salt, the structure may show the parent alone. Read-outs that look alike come from different tables or passages of the source.

Target: T1, recombinant full-length WRN protein (1-1432) (Homo sapiens, UniProt Q14191)
T1 construct: recombinant full-length WRN protein (1-1432)
Assay: WRN unwinding activity, fluorogenic 384-well assay (Example A)
Assay type: biochemical
Settings: Table 2
Procedure: Functional WRN unwinding activity can be measured using a fluorogenic plate based 384 well assay configured to measure the separation of labeled double stranded DNA substrate. Compounds were dosed out in neat DMSO with a 1:3 serial dilution scheme. 100 nL of compound was stamped into Greiner low volume black assay plates (Greiner Cat #784076) using the Echo Acoustic Dispenser to generate assay ready plates. All solutions were prepared in assay buffer (25 mM TRIS (pH8.0), 5 mM NaCl, 2 mM MgCl2, 1 mM DTT, 0.05% BSA) for this 10 μL low volume reaction. To prepare the solutions, a 2×WRN Enzyme cocktail was made containing 200 pM of recombinant full-length WRN protein (1-1432). A 2× Substrate cocktail was made to consist of both 200 μM ATP (any ultrapure ATP sample) and 12 nM of the fluorescent quenched labeled double stranded DNA oligomer (IDT Custom synthesis; 5′-5IABkFQ (SEQ ID NO. 1)/GCACTGGCCGTCGTTTTACGGTCGTGACT-3′ (SEQ ID NO. 2): 5′-TTTTTTACTTAACGACGGCCAGTGC (SEQ ID NO. 3)/36-TAMTSP/-3′ (SEQ ID NO. 4)). To start the reaction, 5 μL of assay buffer was added to a single column to serve as the low control. Following this, 5 μL of 2×WRN Enzyme was added in all wells except the buffer low control wells. The reaction plate was covered and incubated at ambient temperature for 4 hours to allow for time dependent inhibition if it existed. After 4 hours, the addition of 5 μL of 2×-ATP/DNA substrate cocktail was added across all wells of the assay plate. This initiated the reaction, as the plate was incubated at ambient temperature for 60 minutes for the unwinding reaction to occur. A 10 mM EDTA solution was prepared and added at 5 μL across the entire plate after 60 minutes to quench the samples for an endpoint measurement. Fluorescent intensity was measured using excitation and emission wavelengths of 525 nm and 598 nm, respectively. High florescent intensity (DMSO with buffer) represents full inhibition of unwinding activity and low florescent intensity (DMSO with enzyme) represents no inhibition of unwinding activity. The potency of the compounds was determined using a four-parameter inhibition model to generate pIC50, Hill Slope, maximum inhibition (see Table 2).

[1] = WRN unwinding activity, 4 hr, read-out: 4 hr UNW pIC50 (converted)

T1 sequence (Q14191 whole entry): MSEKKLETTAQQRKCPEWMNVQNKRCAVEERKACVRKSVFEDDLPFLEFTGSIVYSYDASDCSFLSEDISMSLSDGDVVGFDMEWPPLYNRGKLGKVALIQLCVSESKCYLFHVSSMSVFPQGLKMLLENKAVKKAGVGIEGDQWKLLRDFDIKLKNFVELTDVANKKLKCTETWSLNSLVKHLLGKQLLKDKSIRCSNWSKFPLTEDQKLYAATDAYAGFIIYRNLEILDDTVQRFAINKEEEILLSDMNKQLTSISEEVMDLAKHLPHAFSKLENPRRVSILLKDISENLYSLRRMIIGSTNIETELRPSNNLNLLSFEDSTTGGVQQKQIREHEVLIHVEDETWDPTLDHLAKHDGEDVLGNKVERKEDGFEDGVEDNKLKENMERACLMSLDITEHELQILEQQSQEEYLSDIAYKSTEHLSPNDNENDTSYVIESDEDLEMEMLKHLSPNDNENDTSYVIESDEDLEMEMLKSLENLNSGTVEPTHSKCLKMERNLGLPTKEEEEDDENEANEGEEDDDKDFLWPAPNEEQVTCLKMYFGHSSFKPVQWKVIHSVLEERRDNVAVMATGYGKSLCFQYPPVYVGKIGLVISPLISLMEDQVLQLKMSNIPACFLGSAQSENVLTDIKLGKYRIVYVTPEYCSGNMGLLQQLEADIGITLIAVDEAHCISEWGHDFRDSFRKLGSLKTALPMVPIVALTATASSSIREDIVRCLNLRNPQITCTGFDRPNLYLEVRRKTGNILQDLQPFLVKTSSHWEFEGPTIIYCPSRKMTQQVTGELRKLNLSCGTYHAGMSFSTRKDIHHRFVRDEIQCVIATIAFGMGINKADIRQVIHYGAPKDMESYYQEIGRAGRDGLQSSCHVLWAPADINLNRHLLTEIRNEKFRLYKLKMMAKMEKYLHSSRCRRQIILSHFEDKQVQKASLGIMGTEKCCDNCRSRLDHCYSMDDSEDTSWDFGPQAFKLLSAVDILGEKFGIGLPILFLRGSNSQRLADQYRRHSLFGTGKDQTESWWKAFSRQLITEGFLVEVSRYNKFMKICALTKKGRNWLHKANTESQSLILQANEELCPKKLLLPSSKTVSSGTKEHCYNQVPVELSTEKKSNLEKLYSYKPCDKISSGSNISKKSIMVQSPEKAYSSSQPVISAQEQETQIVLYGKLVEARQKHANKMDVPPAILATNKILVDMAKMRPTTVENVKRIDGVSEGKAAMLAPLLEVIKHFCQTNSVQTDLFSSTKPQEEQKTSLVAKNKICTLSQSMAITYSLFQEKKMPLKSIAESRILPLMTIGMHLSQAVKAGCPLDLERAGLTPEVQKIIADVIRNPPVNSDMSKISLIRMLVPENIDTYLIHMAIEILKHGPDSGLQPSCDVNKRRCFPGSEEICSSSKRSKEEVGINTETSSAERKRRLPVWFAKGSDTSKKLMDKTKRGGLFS

`COc1cc(C(F)(F)F)ccc1[C@H]1CCC[C@@H](C(=O)Nc2ccc(C(F)(F)F)cc2F)[C@@H]1C(=O)O` (racemic) [Example 237, rac-(1R,2R,6S)-2-((2-fluoro-4-(trifluoromethyl)phenyl)carbamoyl)-6-(2-methoxy-4-(trifluoromethyl)phenyl)cyclohexane-1-carboxylic acid] was tested, and the IC50 [1] was 200 nM.
`CC(C)(O)C#Cc1cc([C@H]2CCC[C@@H](C(=O)Nc3ccc(C(F)(F)F)cc3F)[C@@H]2C(=O)O)ccc1C(F)(F)F` (racemic) [Example 239, rac-(1R,2R,6S)-2-((2-fluoro-4-(trifluoromethyl)phenyl)carbamoyl)-6-(3-(3-hydroxy-3-methylbut-1-yn-1-yl)-4-(trifluoromethyl)phenyl)cyclohexane-1-carboxylic acid] showed an IC50 [1] of 251 nM.
In the case of `CC#Cc1cc([C@H]2CCC[C@@H](C(=O)Nc3ccc(C(F)(F)F)cc3F)[C@@H]2C(=O)O)ccc1C(F)(F)F` (racemic) [Example 240, rac-(1R,2R,6S)-2-((2-fluoro-4-(trifluoromethyl)phenyl)carbamoyl)-6-(3-(prop-1-yn-1-yl)-4-(trifluoromethyl)phenyl)cyclohexane-1-carboxylic acid], the IC50 [1] is reported as 3980 nM.
`O=C(Nc1ccc(C(F)(F)F)cc1)[C@@H]1CCC[C@H](c2ccc(Br)cc2)[C@@]1(F)C(=O)O` (racemic) [Example 243, rac-(1R,2S,6R)-2-(4-bromophenyl)-1-fluoro-6-((4-(trifluoromethyl)phenyl)carbamoyl)cyclohexane-1-carboxylic acid] gave an IC50 [1] of 5010 nM.
In the case of `O=C(O)[C@@H]1[C@@H](c2ccc(C(F)(F)F)cc2CO)CCC[C@H]1C(=O)Nc1ccc(C(F)(F)F)cc1F` (racemic) [Example 246, rac-(1R,2R,6S)-2-((2-fluoro-4-(trifluoromethyl)phenyl)carbamoyl)-6-(2-(hydroxymethyl)-4-(trifluoromethyl)phenyl)cyclohexane-1-carboxylic acid], the IC50 [1] is reported as 126 nM.
With `O=C(O)[C@@H]1[C@@H](c2ccc(C(F)(F)F)cc2)CCC[C@H]1C(=O)Nc1ccc(C(F)(F)F)cc1F` (racemic) [Example 247, rac-(1R,2R,6S)-2-((2-fluoro-4-(trifluoromethyl)phenyl)carbamoyl)-6-(4-(trifluoromethyl)phenyl)cyclohexane-1-carboxylic acid] the IC50 [1] was 79.4 nM.
`CCN[C@@H]1CC[C@@H](C(=O)Nc2ccc(C(C)C)cc2)[C@H](C(=O)O)[C@H]1c1ccc(N(C)S(=O)(=O)c2ccc3c(c2)nc(C)n3C)cc1` (racemic) [Example 249, rac-(1R,2S,3R,6R)-3-(ethylamino)-6-((4-isopropylphenyl)carbamoyl)-2-(4-((N,1,2-trimethyl-1H-benzo[d]imidazole)-5-sulfonamido)phenyl)cyclohexane-1-carboxylic acid] gave an IC50 [1] of 1.58 nM.
`Cc1nc2cc(S(=O)(=O)N(C)c3ccc([C@@H]4CCC[C@H](C(=O)Nc5ccc(C(F)(F)F)cc5F)[C@H]4C(=O)O)cc3C#N)ccc2n1C` (relative stereo) [Example 163, rel-(1R,2S,6R)-2-(3-cyano-4-((N,1,2-trimethyl-1H-benzo[d]imidazole)-5-sulfonamido)phenyl)-6-((2-fluoro-4-(trifluoromethyl)phenyl)carbamoyl)cyclohexane-1-carboxyl c acid] showed an IC50 [1] of 20 nM.
`CN(c1ccc([C@H]2CCC[C@@H](COc3ccc(C(F)(F)F)cc3)[C@@H]2C(=O)O)cc1)S(=O)(=O)c1cccc([C@H]2CCCNC2)c1` (relative stereo) [Example 213, (1R,2S,6R)-2-(4-((N-methyl-3-((R*)-piperidin-3-yl)phenyl)sulfonamido)phenyl)-6-((4-(trifluoromethyl)phenoxy)methyl)cyclohexane-1-carboxylic acid, formic acid salt] showed an IC50 (4 hr UNW pIC50, WRN unwinding activity) of 39.8 nM.
With `Cc1nc2cc(S(=O)(=O)N(C)c3ccc([C@H]4C[C@H](N(C)C)C[C@@H](C(=O)Nc5ccc(C(F)(F)F)cc5F)[C@@H]4C(=O)O)cc3)ccc2n1C` (relative stereo) [Example 253, rel-(1R,2R,4S,6S)-4-(dimethylamino)-2-((2-fluoro-4-(trifluoromethyl)phenyl)carbamoyl)-6-(4-((N,1,2-trimethyl-1H-benzo[d]imidazole)-5-sulfonamido)phenyl)cyclohexane-1-carboxylic acid] the IC50 [1] was 2 nM.
Work on `Cc1nc2cc(S(=O)(=O)Nc3ccc([C@H]4CCC[C@@H](C(=O)Nc5ccc(C(F)(F)F)cc5F)[C@@H]4C(=O)O)cc3)ccc2[nH]1` (relative stereo) [Example 258, rel-(1R,2R,6S)-2-((2-fluoro-4-(trifluoromethyl)phenyl)carbamoyl)-6-(4-((2-methyl-1H-benzo[d]imidazole)-5-sulfonamido)phenyl)cyclohexane-1-carboxylic acid] yielded an IC50 [1] of 631 nM.
With `Cc1nc2cc(S(=O)(=O)N(C)c3ccc([C@H]4CNC[C@@H](C(=O)Nc5ccc(C(F)(F)F)cc5F)[C@@H]4C(=O)O)cc3)ccc2n1C` (relative stereo) [Example 308, rel-(3R,4S,5R)-3-((2-fluoro-4-(trifluoromethyl)phenyl)carbamoyl)-5-(4-((N,1,2-trimethyl-1H-benzo[d]imidazole)-5-sulfonamido)phenyl)piperidine-4-carboxylic acid] the IC50 [1] was 1.58 nM.
`Cc1nc2cc(S(=O)(=O)N(C)c3ccc([C@@H]4C[C@@H](N5CCOCC5)C[C@H](C(=O)Nc5ccc(C(F)(F)F)cc5F)[C@H]4C(=O)O)cc3)ccc2n1C` (relative stereo) [Example 339, rel-(1R,2R,4S,6S)-2-((2-fluoro-4-(trifluoromethyl)phenyl)carbamoyl)-4-morpholino-6-(4-((N,1,2-trimethyl-1H-benzo[d]imidazole)-5-sulfonamido)phenyl)cyclohexane-1-carboxylic acid] gave an IC50 [1] of 631 nM.
`Cc1nc2cc(S(=O)(=O)N(C)c3ccc([C@@H]4C[C@@H](N5CCC(F)(F)CC5)C[C@H](C(=O)Nc5ccc(C(F)(F)F)cc5F)[C@H]4C(=O)O)cc3)ccc2n1C` (relative stereo) [Example 341, rel-(1R,2R,4S,6S)-4-(4,4-difluoropiperidin-1-yl)-2-((2-fluoro-4-(trifluoromethyl)phenyl)carbamoyl)-6-(4-((N,1,2-trimethyl-1H-benzo[d]imidazole)-5-sulfonamido)phenyl)cyclohexane-1-carboxylic acid] was tested, and the IC50 [1] was 7940 nM.
For `Cc1nc2cc(S(=O)(=O)N(C)c3ccc([C@@H]4C[C@@H](N5CC6(F)CC5C6)C[C@H](C(=O)Nc5ccc(C(F)(F)F)cc5F)[C@H]4C(=O)O)cc3)ccc2n1C` (relative stereo) [Example 399, rel-(1R,2R,4S,6S)-2-((2-fluoro-4-(trifluoromethyl)phenyl)carbamoyl)-4-(4-fluoro-2-azabicyclo[2.1.1]hexan-2-yl)-6-(4-((N,1,2-trimethyl-1H-benzo[d]imidazole)-5-sulfonamido)phenyl)cyclohexane-1-carboxylic acid], the IC50 [1] was 12600 nM.
`Cc1nc2cc(S(=O)(=O)N(C)c3ccc([C@H]4CCC[C@H](C(=O)Nc5ccc(C(C)C)cc5)[C@@H]4C(=O)O)cc3)ccc2n1C` (single isomer, unassigned) [Example 74] gave an IC50 [1] of 251 nM.
`Cc1nc2cc(S(=O)(=O)N(C)c3ccc([C@H]4CCC[C@@H](C(=O)Nc5ccc(C(C)C)cc5)[C@H]4C(=O)O)cc3)ccc2n1C` (single isomer, unassigned) [Example 76] gave an IC50 [1] of 1260 nM.
`Cc1nc2cc(S(=O)(=O)N(C)c3ccc([C@H]4CCC[C@@H](C(=O)Nc5ccc(C(C)C)cc5)[C@@H]4C(=O)O)cc3)ccc2n1C` (single isomer, unassigned) [Example 79] showed an IC50 [1] of 501 nM.
`CN(c1ccc([C@H]2CCC[C@@H](C(=O)Nc3ccc(C(F)(F)F)cc3F)[C@@H]2C(=O)O)cc1)S(=O)(=O)c1ccc2[nH]cnc2c1` (single isomer, unassigned) [Example 85] showed an IC50 [1] of 251 nM.
Compound `CN(c1ccc([C@H]2CCC[C@@H](C(=O)Nc3ccc(C(F)(F)F)cc3F)[C@@H]2C(=O)O)cc1)S(=O)(=O)c1ccc2c(c1)ncn2C` (single isomer, unassigned) [Example 87] has an IC50 [1] of 316 nM.
Work on `CC(=O)N1CCc2cc(S(=O)(=O)N(C)c3ccc([C@H]4CCC[C@@H](C(=O)Nc5ccc(C(F)(F)F)cc5F)[C@@H]4C(=O)O)cc3)ccc21` (single isomer, unassigned) [Example 89] yielded an IC50 [1] of 200 nM.
`Cc1nc2cc(S(=O)(=O)N(C)c3ccc([C@H]4CCC[C@@H](C(=O)Nc5ccc(C(F)(F)F)cc5F)[C@@H]4C(=O)O)cc3)ccc2[nH]1` (single isomer, unassigned) [Example 91] showed an IC50 [1] of 126 nM.
Work on `CCO[C@@H]1C[C@H](C(=O)Nc2ccc(C(F)(F)F)cc2F)[C@@H](C(=O)O)[C@H](c2ccc(N(C)S(=O)(=O)c3ccc4c(c3)nc(C)n4C)cc2)C1` (single isomer, unassigned) [Example 137] yielded an IC50 [1] of 251 nM.
